Measured values taken from patent US10889543B2, “Fine-tune modulators of neuronal excitability for neuropsychiatric disorders” (THE BOARD OF REGENTS OF THE UNIVERSITY OF TEXAS SYSTEM, priority 2016, dated 2021).
Residues, ends and D or L forms follow the SMILES beside them. *: point of attachment. Cbz = O=C(OCc1ccccc1)*; Boc = CC(C)(C)OC(=O)*

How the values were obtained:
[1] = tested on: nucleus accumbens medium spiny neurons; assay: Ex vivo whole-cell patch clamp of neuronal firing in brain tissue slices; assay type: cell-based, mice
Text: It is known in the art that nucleus accumbens plays a critical role in reinforcement-associated learning and in addiction-related behavior. See e.g., Woodruff-Pak, D. S., et al., Behavioral neuroscience 120:229-240 (2006); McKinney, B. C., et al., Genes, brain, and behavior 7:629-638 (2008). It has been shown that Nav1.6 channels are expressed at the nucleus accumbens medium spiny neurons. Shah, B. S., et al., The Journal of Physiology 534(Pt 3):763-776 (2001). The effect of ZL0181 on neuronal firing along with active and passive properties was tested using whole-cell patch clamp techniques in brain tissue slices. Nucleus accumbens medium spiny neurons (MNS) were treated with either DMSO (0.05×) or ZL0181 (50 μM) for one hour in an incubation chamber before being transferred to submerge experimental chamber perfused with oxygenated artificial cerebrospinal fluid for patch clamp experiments. […] For instance, at current step of 150 pA the number of spikes in DMSO treated MSNs was 18.4±1.3, n=8 versus 6.9±2.3, n=10 in ZL0181 treated MSNs; p<0.005 with Student t-test (FIG. 4B, Chart C). To test the mechanisms underlying neuronal firing reduction and related to sodium channels activity, action potential voltage and current thresholds were measured.
Coronal nucleus accumbens slices were prepared from FGF14−/− or wild type mice either treated with ZL0181 or vehicle control. Evoked action potentials were recorded in regular ASCF solution at 30-31° C. using Axopatch 200B and 700B amplifiers (Molecular Devices, Union City, Calif.). Recordings were filtered at 2 kHz and digitized at 10-20 kHz using a Digidata 1320 analog-to-digital interface and pClamp9 acquisition software (Molecular Devices, Union City, Calif.). Patch pipettes (4-6 MΩ) were prepared from borosilicate glass using a Narishige PC-10 vertical puller (Narishige International Inc., East Meadow, N.Y.). The extracellular bath solution contained (in mM) 130 NaCl, 3.5 KCl, 10 glucose, 1.5 MgCl2, 1.4 CaCl2, 23 NaHCO3, 1.25 NaH2PO4, osmolarity 300-310, pH 7.4, and the intracellular recording solution contained (in mM) 120 CH3KO3S, 10 KCl, 10 HEPES, 10 glucose, 2 MgCl2, 0.5 EGTA, 2 MgATP, and 0.5 NaGTP, osmolarity 280-290, pH 7.3. Upon forming a whole-cell connection, artificial cerebrospinal fluid containing 10 μM bicucilline (Tocris Bioscience), 30 μM NBQX (Tocris Bioscience), and 100 μM D-APV (Tocris Bioscience) was perfused into the bath solution in order to block synaptic transmission.
After seal formation and membrane rupture, action potential trains were evoked with current step protocol injections of 10 pA increment.

FGF14:Nav1.6 complex = biological target: T1, FGF14:Nav1.6 complex (Homo sapiens, UniProt Q92915); assay: Split-luciferase complementation assay (LCA) in HEK293 cells expressing CLuc-FGF14 and CD4-Nav1.6-NLuc; assay type: cell-based; settings: 50 μM, normalized to DMSO control
T1 construct: FGF14 and the C-tail of Nav1.6 channels are fused to vectors expressing CLuc and NLuc luciferase reporter; expressed in transfected cells; host or cells: HEK293, transient transfection
T1 sequence (Q92915 1-252 isoform Q92915-2): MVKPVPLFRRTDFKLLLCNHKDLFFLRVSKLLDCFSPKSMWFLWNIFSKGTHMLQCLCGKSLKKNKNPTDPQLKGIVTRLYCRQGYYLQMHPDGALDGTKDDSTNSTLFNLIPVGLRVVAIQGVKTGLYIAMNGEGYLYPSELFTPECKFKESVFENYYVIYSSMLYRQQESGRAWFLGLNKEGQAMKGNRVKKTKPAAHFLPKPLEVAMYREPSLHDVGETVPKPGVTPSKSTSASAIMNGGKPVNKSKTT
Method: Detailed methods for LCA can be found is known in the art. See e.g., Shavkunov A. S., et al., Methods in Molecular Biology 1278:497-514 (2015). Statistical values were calculated as mean and standard error of the mean (mean±SEM), unless otherwise specified. The statistical significance (*p<0.05) of different groups was determined by Student's t-test, one-way ANOVA with post-hoc Bonferroni's method or Kruskal-Wallis one-way ANOVA on ranks with post-hoc Dunn's method using Sigma Stat (San Jose, Calif.) and Graph PrismR (La Jolla, Calif.) software. Dose-response modulation was determined by: y=START+(END−START)*x^n/(k^n+x^n) where k, Michaelis constant; n, cooperative sites; x, independent variable; y, dependable variable.
To monitor the role of compounds of the invention in the FGF14:Nav1.6 complex, certain embodiments of the invention were screened by split-luciferase complementation assay (LCA) where FGF14 and the C-tail of Nav1.6 channels are fused to vectors expressing CLuc and NLuc luciferase reporter. Compounds of the invention, as exemplified by, compounds ZL0141, ZL0148, ZL0181, and ZL0182 (see FIG. 1) were tested at 50 μM in HEK293 cells expressing CLuc-FGF14 and CD4:Nav1.6-NLuc. […] None of the tested compounds interfered with the full-length luciferase enzyme (FIG. 2B, Chart C). Dose-response studies were then performed with compounds ZL0148, ZL0181, and ZL0182 against the FGF14:Nav1.6 complex.

SMILES: CC(C)C[C@H](NC(=O)[C@H](Cc1ccccc1)NC(=O)OCc1ccccc1)C(=O)N1CCC[C@H]1C(=O)N[C@@H](CCCCNC(=O)OC(C)(C)C)C(N)=O [ZL0181, Z-Phe-Leu-Pro-Lys(Boc)-NH2] (Cbz-FLPK(Boc)-NH2)
- number of spikes ([1]; 50 μM for one hour, current step of 150 pA, n=10, DMSO 18.4±1.3): 6.9±2.3
- action potential current threshold ([1]; 50 μM for one hour, n=10, DMSO 72.5±11.5): 135.8±12.5 pA
- action potential voltage threshold ([1]; 50 μM for one hour, n=10, DMSO −35.9±2.3): −27.8±2 mV
- further neuronal active and passive properties ([1]; 50 μM, compared to DMSO control): no significant changes
- luminescence response compared to control (DMSO) (FGF14:Nav1.6 complex): 75±6%
